Source: patent US20230101747A1 (Schrödinger, Inc., priority 2019, published 2023)

Target: T1, Full length human CDC7 protein co-expressed with DBF4 (Homo sapiens, UniProt O00311)
T1 construct: Full length human CDC7 protein co-expressed with DBF4; purchased SignalChem (China)
Assay: CDC7 kinase biochemical assay (ADP-Glo, PDKtide substrate)
Details: 0.1 nM CDC7/DBF4, 1 uM ATP, 10 uM PDKtide, 4 h; read-out: CDC7 ADP-Glo PDKtide IC50
Method: CDC7 Kinase Biochemical Assay Protocol:
Full length human CDC7 protein co-expressed with DBF4 was purchased from SignalChem (China). CDC7 kinase activity was determined with PDKtide (SignalChem) as a substrate and by measuring ADP production using the ADP-Glo™ Kinase Assay kit (Promega) following the manufacturers instructions. The kinase reaction was performed using the following conditions: Buffer: 40 mM Tris pH 7.5, 20 mM MgCl2, 0.1 mg/ml BSA and 50 uM DTT. Final reaction mix contained 0.1 nM CDC7/DBF4, 1 uM ATP and 10 uM PDKtide. The kinase reaction time was 4 h. The ADP-Glo signal was measured using an EnVision plate reader (PerkinELmer).
Percent inhibition of CDC7 kinase activity was calculated based on the following formula: […]
SSample: the signal of compounds SHigh ctrl: the signal of high control (DMSO) SLow Ctrl: the signal of low control (positive control CDC7 inhibitor)

T1 sequence (O00311 whole entry): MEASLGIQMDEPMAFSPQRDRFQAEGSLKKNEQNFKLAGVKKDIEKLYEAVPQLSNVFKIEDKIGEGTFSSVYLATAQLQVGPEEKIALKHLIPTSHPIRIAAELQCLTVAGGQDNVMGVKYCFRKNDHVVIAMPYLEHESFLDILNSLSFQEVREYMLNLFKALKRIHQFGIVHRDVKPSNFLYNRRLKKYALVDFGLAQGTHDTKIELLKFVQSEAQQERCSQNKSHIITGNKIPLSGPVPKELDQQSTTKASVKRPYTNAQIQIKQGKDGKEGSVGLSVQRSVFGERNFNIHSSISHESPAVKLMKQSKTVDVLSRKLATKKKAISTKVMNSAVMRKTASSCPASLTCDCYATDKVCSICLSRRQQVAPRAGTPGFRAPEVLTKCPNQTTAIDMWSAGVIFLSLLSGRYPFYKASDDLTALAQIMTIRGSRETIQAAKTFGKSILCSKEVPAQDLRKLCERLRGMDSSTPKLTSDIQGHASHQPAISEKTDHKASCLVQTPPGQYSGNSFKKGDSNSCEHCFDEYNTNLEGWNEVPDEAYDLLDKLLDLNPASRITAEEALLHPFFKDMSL
T1 sequence (Q9UBU7 whole entry partner): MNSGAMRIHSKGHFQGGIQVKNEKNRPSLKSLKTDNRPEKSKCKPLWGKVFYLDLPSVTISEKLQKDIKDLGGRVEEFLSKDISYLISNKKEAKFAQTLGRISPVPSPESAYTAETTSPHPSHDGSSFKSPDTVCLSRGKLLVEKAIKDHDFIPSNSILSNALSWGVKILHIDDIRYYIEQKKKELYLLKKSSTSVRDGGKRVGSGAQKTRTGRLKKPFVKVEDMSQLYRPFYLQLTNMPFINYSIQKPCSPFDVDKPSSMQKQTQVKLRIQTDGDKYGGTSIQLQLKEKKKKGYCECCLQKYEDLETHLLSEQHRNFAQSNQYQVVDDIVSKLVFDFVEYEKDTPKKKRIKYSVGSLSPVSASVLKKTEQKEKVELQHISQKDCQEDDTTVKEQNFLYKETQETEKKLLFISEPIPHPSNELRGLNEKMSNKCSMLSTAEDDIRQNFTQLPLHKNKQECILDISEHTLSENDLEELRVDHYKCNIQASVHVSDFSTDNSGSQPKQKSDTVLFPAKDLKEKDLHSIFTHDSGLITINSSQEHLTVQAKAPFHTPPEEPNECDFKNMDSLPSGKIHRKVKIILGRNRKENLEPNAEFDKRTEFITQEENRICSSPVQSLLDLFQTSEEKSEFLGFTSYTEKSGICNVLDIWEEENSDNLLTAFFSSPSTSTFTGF

Row | Compound | IC50 [nM]
1 | COC[C@@H]1CN(C)C(=O)c2sc(-c3cn[nH]c3)c3c2N1CCO3 [Compound 56, (S)-6-(methoxymethyl)-8-methyl-2-(1H-pyrazol-4-yl)-4,5,7,8-tetrahydro-3-oxa-1-thia-5a,8-diazabenzo[cd]azulen-9(6H)-one] | 1 to 10
2 | CC(=O)NC[C@@H]1COc2c(-c3cn[nH]c3)sc3c2N1CCNC3=O [Compound 57, N-[[(7R)-12-oxo-3-(1H-pyrazol-4-yl)-5-oxa-2-thia-8,11-diazatricyclo[6.4.1.0^4,13]trideca-1(13),3-dien-7-yl]methyl]acetamide] | < 1
3 | O=C1NCCN2c3c1sc(-c1cn[nH]c1)c3OC[C@H]2CNC(=O)C1CCC1 [Compound 58, (R)—N-((9-oxo-2-(1H-pyrazol-4-yl)-4,5,6,7,8,9-hexahydro-3-oxa-1-thia-5a,8-diazabenzo[cd]azulen-5-yl)methyl)cyclobutanecarboxamide] | < 1
4 | N#CC[C@@H]1CNC(=O)c2sc(-c3cn[nH]c3)c3c2N1CCO3 [Compound 59, (R)-2-(9-oxo-2-(1H-pyrazol-4-yl)-4,5,6,7,8,9-hexahydro-3-oxa-1-thia-5a,8-diazabenzo[cd]azulen-6-yl)acetonitrile] | < 1
5 | COC(=O)C[C@@H]1CNC(=O)c2sc(-c3cn[nH]c3)c3c2N1CCO3 [Compound 60, methyl (R)-2-(9-oxo-2-(1H-pyrazol-4-yl)-4,5,6,7,8,9-hexahydro-3-oxa-1-thia-5a,8-diazabenzo[cd]azulen-6-yl)acetate] | 1 to 10
6 | Cc1ccn(C[C@@H]2CNC(=O)c3sc(-c4cn[nH]c4)c4c3N2CCO4)n1 [Compound 61, (S)-6-((3-methyl-1H-pyrazol-1-yl)methyl)-2-(1H-pyrazol-4-yl)-4,5,7,8-tetrahydro-3-oxa-1-thia-5a,8-diazabenzo[cd]azulen-9(6H)-one] | < 1
7 | Cc1ccnn1C[C@H]1CNC(=O)c2sc(-c3cn[nH]c3)c3c2N1CCO3 [Compound 62, (R)-6-((5-methyl-1H-pyrazol-1-yl)methyl)-2-(1H-pyrazol-4-yl)-4,5,7,8-tetrahydro-3-oxa-1-thia-5a,8-diazabenzo[cd]azulen-9(6H)-one] | > 10
8 | Cc1cnn(C[C@@H]2CNC(=O)c3sc(-c4cn[nH]c4)c4c3N2CCO4)c1 [Compound 63, (S)-6-((4-methyl-1H-pyrazol-1-yl)methyl)-2-(1H-pyrazol-4-yl)-4,5,7,8-tetrahydro-3-oxa-1-thia-5a,8-diazabenzo[cd]azulen-9(6H)-one] | 1 to 10
9 | O=C1NC2(CCOCC2)CN2CCOc3c(-c4cn[nH]c4)sc1c32 [Compound 64, 2-(1H-pyrazol-4-yl)-2′,3′,4,5,5′,6′-hexahydro-6H-3-oxa-1-thia-5a,8-diazaspiro[benzo[cd]azulene-7,4′-pyran]-2,2a1(9a)-dien-9(8H)-one] | < 1
10 | O=C1N[C@@H](C2CCOCC2)CN2CCOc3c(-c4cn[nH]c4)sc1c32 [Compound 65, (S)-2-(1H-pyrazol-4-yl)-7-(tetrahydro-2H-pyran-4-yl)-4,5,7,8-tetrahydro-3-oxa-1-thia-5a,8-diazabenzo[cd]azulen-9(6H)-one] | < 1
11 | O=C1NC[C@H](CO)N2CCCc3c(-c4cn[nH]c4)sc1c32 [Compound 87, (R)-6-(hydroxymethyl)-2-(1H-pyrazol-4-yl)-4,5,7,8-tetrahydro-3H-1-thia-5a,8-diazabenzo[cd]azulen-9(6H)-one] | < 1
12 | COC[C@H]1CNC(=O)c2sc(-c3cn[nH]c3)c3c2N1CCC3 [Compound 88, (R)-6-(methoxymethyl)-2-(1H-pyrazol-4-yl)-4,5,7,8-tetrahydro-3H-1-thia-5a,8-diazabenzo[cd]azulen-9(6H)-one] | 1 to 10
13 | O=C1NC[C@@H](CC2(O)CC2)N2CCCc3c(-c4cn[nH]c4)sc1c32 [Compound 89, (9R)-9-[(1-hydroxycyclopropyl)methyl]-3-(1H-pyrazol-4-yl)-2-thia-8,11-diazatricyclo [6.4.1.0^4,13]trideca-1(13),3-dien-12-one] | < 1
14 | CCC(=O)C[C@@H]1CNC(=O)c2sc(-c3cn[nH]c3)c3c2N1CCC3 [Compound 90, (9R)-9-(2-oxobutyl)-3-(1H-pyrazol-4-yl)-2-thia-8,11-diazatricyclo[6.4.1.0^4,13]trideca-1(13),3-dien-12-one] | 1 to 10
15 | O=C1N[C@@H](C2CCC2)[C@H](CO)N2CCOc3c(-c4cn[nH]c4)sc1c32 [Compound 92, (9R,10S)-10-cyclobutyl-9-(hydroxymethyl)-3-(1H-pyrazol-4-yl)-5-oxa-2-thia-8,11-diazatricyclo[6.4.1.0^4,13]trideca-1(13),3-dien-12-one] | < 1
16 | O=C1NC[C@H](CN2CCC2)N2CCCc3c(-c4cn[nH]c4)sc1c32 [Compound 94, (R)-6-(azetidin-1-ylmethyl)-2-(1H-pyrazol-4-yl)-4,5,7,8-tetrahydro-3H-1-thia-5a,8-diazabenzo[cd]azulen-9(6H)-one] | 1 to 10
17 | Cc1cnn(C[C@H]2CNC(=O)c3sc(-c4cn[nH]c4)c4c3N2CCC4)c1 [Compound 95, (R)-6-((4-methyl-1H-pyrazol-1-yl)methyl)-2-(1H-pyrazol-4-yl)-4,5,7,8-tetrahydro-3H-1-thia-5a,8-diazabenzo[cd]azulen-9(6H)-one] | 1 to 10
18 | N#CC[C@@H]1CNC(=O)c2sc(-c3cn[nH]c3)c3c2N1CCC3 [Compound 97, (R)-2-(9-oxo-2-(1H-pyrazol-4-yl)-4,5,6,7,8,9-hexahydro-3H-1-thia-5a,8-diazabenzo[cd]azulen-6-yl)acetonitrile] | < 1
19 | C[C@H]1CN2CC(F)(F)Cc3c(-c4cn[nH]c4)sc(c32)C(=O)N1 [Compound 101, (10S)-6,6-difluoro-10-methyl-3-(1H-pyrazol-4-yl)-2-thia-8,11-diazatricyclo[6.4.1.0^4,13]trideca-1(13),3-dien-12-one] | < 1
20 | COC[C@@H]1CNC(=O)c2sc(-c3ccncc3)c3c2N1CCO3 [Compound 105, (S)-6-(methoxymethyl)-2-(pyridin-4-yl)-4,5,7,8-tetrahydro-3-oxa-1-thia-5a,8-diazabenzo[cd]azulen-9(6H)-one] | < 1
21 | O=C1N[C@H](C2CCC2)CN2CCOc3c(-c4ccncc4)sc1c32 [Compound 106, (R)-7-cyclobutyl-2-(pyridin-4-yl)-4,5,7,8-tetrahydro-3-oxa-1-thia-5a,8-diazabenzo[cd]azulen-9(6H)-one] | < 1
22 | CC(C)(O)C[C@H]1CN2CC(F)(F)Oc3c(-c4cn[nH]c4)sc(c32)C(=O)N1 [Compound 116, (S)-4,4-difluoro-7-(2-hydroxy-2-methylpropyl)-2-(1H-pyrazol-4-yl)-4,5,7,8-tetrahydro-3-oxa-1-thia-5a,8-diazabenzo[cd]azulen-9(6H)-one] | < 1
23 | CC(C)(O)C[C@@H]1CN2CC(F)(F)Oc3c(-c4cn[nH]c4)sc(c32)C(=O)N1 [Compound 117, (R)-4,4-difluoro-7-(2-hydroxy-2-methylpropyl)-2-(1H-pyrazol-4-yl)-4,5,7,8-tetrahydro-3-oxa-1-thia-5a,8-diazabenzo-[cd]azulen-9(6H)-one] | < 1
24 | CC(C)(O)C[C@@H]1CN2CC(F)(F)Cc3c(-c4cn[nH]c4)sc(c32)C(=O)N1 [Compound 131, (R)-4,4-difluoro-7-(2-hydroxy-2-methylpropyl)-2-(1H-pyrazol-4-yl)-4,5,7,8-tetrahydro-3H-1-thia-5a,8-diazabenzo[cd]azulen-9(6H)-one] | < 1
25 | CC(C)(O)C[C@H]1CN2CC(F)(F)Cc3c(-c4cn[nH]c4)sc(c32)C(=O)N1 [Compound 132, (S)-4,4-difluoro-7-(2-hydroxy-2-methylpropyl)-2-(1H-pyrazol-4-yl)-4,5,7,8-tetrahydro-3H-1-thia-5a,8-diazabenzo[cd]azulen-9(6H)-one] | < 1
26 | COC[C@@H]1CNC(=O)c2sc(-c3cn[nH]c3)c3c2N1CC(F)(F)O3 [Compound 133, (S)-4,4-difluoro-6-(methoxymethyl)-2-(1H-pyrazol-4-yl)-4,5,7,8-tetrahydro-3-oxa-1-thia-5a,8-diazabenzo[cd]azulen-9(6H)-one] | < 1
27 | O=C1N[C@H](CN2CCOCC2)CN2CC(F)(F)Cc3c(-c4cn[nH]c4)sc1c32 [Compound 134, (R)-4,4-difluoro-7-(morpholinomethyl)-2-(1H-pyrazol-4-yl)-4,5,7,8-tetrahydro-3H-1-thia-5a,8-diazabenzo[cd]azulen-9(6H)-one] | 1 to 10
28 | COC1CN(C[C@H]2CN3CC(F)(F)Cc4c(-c5cn[nH]c5)sc(c43)C(=O)N2)C1 [Compound 141, (S)-4,4-difluoro-7-((3-methoxyazetidin-1-yl)methyl)-2-(1H-pyrazol-4-yl)-4,5,7,8-tetrahydro-3H-1-thia-5a,8-diazabenzo[cd]azulen-9(6H)-one] | 1 to 10
